{"source": "patent US11286236B2", "about": "“Compound, agent and composition for the suppression of cancer growth” (Vector Vitale IP LLC, priority 2018, dated 2022)", "type_in_all_cases": "cell-based", "key": {"[1]": {"system": "Mouse melanoma cells (MM-4 cell line)", "assay": "Cytotoxic effect on melanoma cells, single agents (crystal violet)", "procedure": "Materials and Methods: Mouse melanoma cells (MM-4 cell line) were seeded into 96-well plates (TPP, Italy) in DMEM (High Glucose w/L-Glutamine w/o Sodium Pyruvate; Biowest, France) supplemented with 10% newborn calf serum (Biowest, France) and […] gentamicin (Sigma, USA) at a seeding density of 5×10^4 cells/ml. The cells were then cultured in an incubator with a humidified atmosphere of 5% CO2 in air at 37° C. 24 hours after the cells were seeded, a compound according to the invention that comprises ^85Rb-enriched rubidium salt of N-benzoyl-N′-(4-toluenesulfonyl)-o-phenylenediamine of formula I was added into the appropriate wells. ^85Rbe-E2 was used at the following doses: 2.0 μg/ml, 1.0 μg/ml, 0.5 μg/ml (each is the final concentration of ^85Rbe after addition to the well). The cytotoxic effect was determined by counting the number of live cells observed after treatment, expressed as a percentage of the number of live cells observed/counted in the control (cells seed in the well and not treated). Control cells were not treated. For each concentration, the experiment was carried out twice. The effects of the drugs were evaluated visually, which allowed us to examine the morphological pattern of the cytotoxic action of the drugs, and by staining the cells with crystal violet, followed by OD measurement at an excitation wavelength of 540 nm using a MultiScan spectrophotometer. For comparison, a parallel experiment was carried out with the use of a known antitumor drug cisplatin and a compound of rubidium salt of N-benzoyl-N′-(4-toluenesulfonyl)-o-phenylenediamine of formula I which comprised a naturally-abundant mixture of isotopes of rubidium instead of being enriched for the ^85Rb isotope."}, "Mouse Bone Marrow Cells": {"system": "Mouse Bone Marrow Cells", "assay": "Cytotoxic/cytostatic effects on mouse bone marrow cells (MTT assay)", "procedure": "In Vitro Assessment of Cytotoxic/Cytostatic Effects of Experimental Compound ^85Rbe-E2 on Mouse Bone Marrow Cells\n(§1) Proliferative and metabolic activity of cells was determined by the colorimetric method.\n(§2) The metabolic activity of the cells (i.e., the number of living cells) was assessed by MTT staining.\n(§3) 24 hours after the last reagent, the cells were seeded at a concentration of 1×10^4 cells/well in wells of a 96-well plate in complete DMEM nutrient medium with 10% FBS and 40 μg/ml gentamicin. The cells were cultured in a humidified atmosphere at 5% CO2 and 37° C. for 24 hours. After 24 hours, various doses of experimental substances were added to the respective wells. The cells were incubated at 37° C. and 5% CO2 for an additional 72 hours.\n(§4) Upon completion of the incubation with the preparations, the proliferative and metabolic activity of the cells in the experiment was evaluated by the colorimetric method by staining MTT cells:\n(§5) 10 μl of the MTT solution (5 mg/ml of the dye in phosphate-buffered saline) was added to each well of the plate; the plate was incubated in a CO2 incubator at 37° C. for 3 hours. After that, the medium was removed from the wells, and the formed tetraformazan crystals were dissolved in 100 μl of dimethylsulfoxide.\n(§6) When MTT was used, the results were evaluated using a multi-well spectrophotometer at an excitation wavelength of 540 nm. The percentage of viable cells was calculated by the formula: IR=(A540(experiment)/A540(control))×100%."}, "[2]": {"system": "human Keratinocytes (HaCaT line)", "assay": "Metabolic activity of human keratinocytes (HaCaT line)", "procedure": "In Vitro Effects of Experimental Compound ^85Rbe-E2 on metabolic activity of human Keratinocytes\nas §1, §2, §3, §4, §5, §6"}, "[3]": {"system": "Mouse melanoma cells (MM-4 cell line)", "assay": "Cytotoxic effect of E2+85Rbe and antitumor drug added 24 hours apart", "procedure": "The effectiveness of the method of the invention that comprises administering antitumor drugs and ^85Rb-enriched rubidium salt of N-benzoyl-N-(4-toluenesulfonyl)-o-phenylenediamine of formula I was measured in the experiment. […] Both orders were tested: AD administered first (Scheme 2, below), and AD administered second (Scheme 1, below).\nMaterials and Methods: Mouse melanoma cells (MM-4 cell line) were seeded into 96-well plates (TPP, Italy), in DMEM (Biowest, France) supplemented with 10% newborn calf serum (Biowest, France) and […] gentamicin (Sigma, USA) at a seeding density of 5×10^4 cells/ml. The cells were then cultured in an incubator with a humidified atmosphere of 5% CO2 in air at 37° C. The experiment was carried out in accordance with the three schemes given below. The experiment was started 24 hours after the cells were seeded. For this purpose, the agents used in the method were introduced into the appropriate wells. The following schemes of introduction were used for the study:\nScheme 1) The ^85Rb-enriched rubidium salt of N-benzoyl-N′-(4-toluenesulfonyl)-o-phenylenediamine of formula I was introduced at the first stage in the following amounts: 2.0 μg/ml, 1.0 μg/ml, 0, 5 μg/ml, and one antitumor drug was introduced at the second stage (after 24 hours).\nScheme 2) An AD was introduced at the first stage at doses as indicated in Scheme 1 above and ^85Rb-enriched rubidium salt of N-benzoyl-N′-(4-toluenesulfonyl)-o-phenylenediamine of formula I was introduced at the second stage (after 24 hours) at the following doses: 2.0 μg/ml, 1.0 μg/ml, 0.5 μg/ml.\nAfter all the agents were added into the wells, the cells were incubated at 37° C. and 5% CO2 for another 72 hours (96 hours in total after the cells were seeded).\nAs in example 2, the cytotoxic effect was determined as the percentage of the cell number with respect to the control after their treatment in accordance with the claimed method. The effects of the drugs were evaluated visually, which allowed us to examine the morphological pattern of the cytotoxic action of the drugs, and by staining the cells with crystal violet, followed by OD measurement at an excitation wavelength of 540 nm using a MultiSkan microplate spectrophotometer.\nThe effects of the complex action of various doses of the investigated substances were evaluated using the concept of synergistic, additive and antagonistic effects of the drugs, as for Example 2, and calculating CI as described in Example 2.\nEach table sets forth the % of MM-4 cells that survived in the presence of the drug doses indicated in the in vitro experiments described above, expressed as a percentage of the cells in the control wells."}}, "note": "Structures can show the parent of a compound that is named as a salt."}
{"smiles": "Cc1ccc(S(=O)(=O)Nc2ccccc2NC(=O)c2ccccc2)cc1", "note": "[^85Rbe − E2, ^85Rb-enriched rubidium salt of N-benzoyl-N′-(4-toluenesulfonyl)-o-phenylenediamine]", "values": [{"measurement": "Number of cells after their treatment with the drug, %", "setting": "[1]; 0.5 μg/ml of rubidium (85Rbe or Rb)", "value": "32.3 ± 0.7", "unit": "%"}, {"measurement": "Number of cells after their treatment with the drug, %", "setting": "[1]; 1.0 μg/ml of rubidium (85Rbe or Rb)", "value": "8.3 ± 0.5", "unit": "%"}, {"measurement": "Number of cells after their treatment with the drug, %", "setting": "[1]; 2.0 μg/ml of rubidium (85Rbe or Rb)", "value": "6.4 ± 0.3", "unit": "%"}, {"measurement": "Metabolic activity of cells, %", "setting": "Mouse Bone Marrow Cells; 1.25 μg/ml", "value": "119.1 ± 0.2", "unit": "%"}, {"measurement": "Metabolic activity of cells, %", "setting": "Mouse Bone Marrow Cells; 2.5 μg/ml", "value": "97.4 ± 1.4", "unit": "%"}, {"measurement": "Metabolic activity of cells, %", "setting": "Mouse Bone Marrow Cells; 5 μg/ml", "value": "90.2 ± 3.3", "unit": "%"}, {"measurement": "Metabolic activity of cells, %", "setting": "Mouse Bone Marrow Cells; 10 μg/ml", "value": "45 ± 4.7", "unit": "%"}, {"measurement": "Metabolic activity of cells, %", "setting": "Mouse Bone Marrow Cells; 20 μg/ml", "value": "24.2 ± 0.8", "unit": "%"}, {"measurement": "Metabolic activity of cells, %", "setting": "Mouse Bone Marrow Cells; 38 μg/ml", "value": "19.1 ± 1.9", "unit": "%"}, {"measurement": "Metabolic activity of cells, %", "setting": "Mouse Bone Marrow Cells; 75 μg/ml", "value": "18.5 ± 0.4", "unit": "%"}, {"measurement": "Metabolic activity of cells, %", "setting": "Mouse Bone Marrow Cells; 150 μg/ml", "value": 0, "unit": "%"}, {"measurement": "Metabolic activity of cells, %", "setting": "[2]; 8 ng/ml", "value": "114 ± 7.7", "unit": "%"}, {"measurement": "Metabolic activity of cells, %", "setting": "[2]; 16 ng/ml", "value": "98 ± 4", "unit": "%"}, {"measurement": "Metabolic activity of cells, %", "setting": "[2]; 31 ng/ml", "value": "97.8 ± 3.6", "unit": "%"}, {"measurement": "Metabolic activity of cells, %", "setting": "[2]; 62 ng/ml", "value": "90.7 ± 2.7", "unit": "%"}, {"measurement": "Metabolic activity of cells, %", "setting": "[2]; 0.13 μg/ml", "value": "95.3 ± 10.7", "unit": "%"}, {"measurement": "Metabolic activity of cells, %", "setting": "[2]; 0.25 μg/ml", "value": "100 ± 8.7", "unit": "%"}, {"measurement": "Metabolic activity of cells, %", "setting": "[2]; 0.5 μg/ml", "value": "90 ± 1", "unit": "%"}, {"measurement": "Metabolic activity of cells, %", "setting": "[2]; 1 μg/ml", "value": 0, "unit": "%"}, {"measurement": "% surviving MM-4 cells", "setting": "[3]; E2+85Rbe 0.5 μg/ml alone, first stage", "value": "32.3 ± 0.7", "unit": "%"}, {"measurement": "% surviving MM-4 cells", "setting": "[3]; E2+85Rbe 0.5 μg/ml alone, second stage (24 h later)", "value": "51 ± 1", "unit": "%"}, {"measurement": "% surviving MM-4 cells", "setting": "[3]; E2+85Rbe 1 μg/ml alone, first stage", "value": "8.3 ± 0.5", "unit": "%"}, {"measurement": "% surviving MM-4 cells", "setting": "[3]; E2+85Rbe 1 μg/ml alone, second stage (24 h later)", "value": "19 ± 0.5", "unit": "%"}, {"measurement": "% surviving MM-4 cells", "setting": "[3]; E2+85Rbe 2 μg/ml alone, first stage", "value": "6.4 ± 0.3", "unit": "%"}, {"measurement": "% surviving MM-4 cells", "setting": "[3]; E2+85Rbe 2 μg/ml alone, second stage (24 h later)", "value": "17.7 ± 0.8", "unit": "%"}]}
{"smiles": "N.N.[Cl][Pt][Cl]", "note": "[cisplatin]", "values": [{"measurement": "Number of cells after their treatment with the drug, %", "setting": "[1]; cisplatin 0.5 μg/ml", "value": "84 ± 3.3", "unit": "%"}, {"measurement": "Number of cells after their treatment with the drug, %", "setting": "[1]; cisplatin 1.0 μg/ml", "value": "51.7 ± 6.9", "unit": "%"}, {"measurement": "Number of cells after their treatment with the drug, %", "setting": "[1]; cisplatin 2.5 μg/ml", "value": "24.6 ± 5.2", "unit": "%"}, {"measurement": "Number of cells after their treatment with the drug, %", "setting": "[1]; cisplatin 5 μg/ml", "value": "13.8 ± 1.2", "unit": "%"}, {"measurement": "Number of cells after their treatment with the drug, %", "setting": "[1]; cisplatin 10 μg/ml", "value": "2.6 ± 1.4", "unit": "%"}, {"measurement": "% surviving MM-4 cells", "setting": "[3]; cisplatinum 0.5 μg/ml alone, first stage", "value": "84 ± 3.3", "unit": "%"}, {"measurement": "% surviving MM-4 cells", "setting": "[3]; cisplatinum 0.5 μg/ml alone, second stage", "value": "84.6 ± 3.5", "unit": "%"}, {"measurement": "% surviving MM-4 cells", "setting": "[3]; cisplatinum 1 μg/ml alone, first stage", "value": "51.7 ± 6.9", "unit": "%"}, {"measurement": "% surviving MM-4 cells", "setting": "[3]; cisplatinum 1 μg/ml alone, second stage", "value": "70 ± 3.6", "unit": "%"}, {"measurement": "% surviving MM-4 cells", "setting": "[3]; cisplatinum 2.5 μg/ml alone, first stage", "value": "24.6 ± 5.2", "unit": "%"}, {"measurement": "% surviving MM-4 cells", "setting": "[3]; cisplatinum 2.5 μg/ml alone, second stage", "value": "34 ± 2.6", "unit": "%"}, {"measurement": "% surviving MM-4 cells", "setting": "[3]; cisplatinum 5 μg/ml alone, first stage", "value": "13.8 ± 1.2", "unit": "%"}, {"measurement": "% surviving MM-4 cells", "setting": "[3]; cisplatinum 5 μg/ml alone, second stage", "value": "35.2 ± 3.3", "unit": "%"}, {"measurement": "% surviving MM-4 cells", "setting": "[3]; cisplatinum 10 μg/ml alone, first stage", "value": "2.6 ± 1.4", "unit": "%"}, {"measurement": "% surviving MM-4 cells", "setting": "[3]; cisplatinum 10 μg/ml alone, second stage", "value": "19.4 ± 0.9", "unit": "%"}]}
